According to BindingDB's records for doi:10.3109/14756366.2012.681651 (East China University of Science and Technology, 2013):

Target: Ribosomal protein S6 kinase alpha-3 (Homo sapiens, UniProt P51812)
Experiment: RSK2 Inhibition Assay
Settings: pH 7.4; 25 °C
Experimental: The inhibition assays against RSK2 in vitro were determined by ADP Quest® (DiscoveRx) in 96-well flat-bottom plates according to the manufacturer's instructions [Lu et al., J. Med. Chem., 54:3564-3574]. The kinase (20 ng millipore) in 40 μL assay buffer (15 mM HEPES, pH 7.4, 20 mM NaCl, 1 mM EGTA, 0.02% Tween 20, 10 mM MgCl2, and 0.1 mg/mL BGG) containing 25 μM S6 peptide (AKRRRLSSLRA, Anaspec) was incubated for 20 min at room temperature with indicated concentrations of the compounds to be tested. Reactions were initiated by adding 10 μL of ATP to a final ATP concentration of 10 μM and terminated after 60 min at room temperature by adding 20 μL ADP Reagent A and 40 μL ADP Reagent B. Ro31-8220 was used as a positive control. Compounds dilutions were prepared from stock in DMSO and diluted with assay buffer for inhibition assay. The fluorescence signal detecting the amount of ADP produced as a result of enzyme activity was recorded on the Synergy™ 2 Multi-Mode Microplate Reader (BioTek) at an excitation wavelength of 530 nm and an emission wavelength of 590 nm at 30 min after the addition of the ADP Reagent B.

Sequence of Ribosomal protein S6 kinase alpha-3 (P51812 whole entry): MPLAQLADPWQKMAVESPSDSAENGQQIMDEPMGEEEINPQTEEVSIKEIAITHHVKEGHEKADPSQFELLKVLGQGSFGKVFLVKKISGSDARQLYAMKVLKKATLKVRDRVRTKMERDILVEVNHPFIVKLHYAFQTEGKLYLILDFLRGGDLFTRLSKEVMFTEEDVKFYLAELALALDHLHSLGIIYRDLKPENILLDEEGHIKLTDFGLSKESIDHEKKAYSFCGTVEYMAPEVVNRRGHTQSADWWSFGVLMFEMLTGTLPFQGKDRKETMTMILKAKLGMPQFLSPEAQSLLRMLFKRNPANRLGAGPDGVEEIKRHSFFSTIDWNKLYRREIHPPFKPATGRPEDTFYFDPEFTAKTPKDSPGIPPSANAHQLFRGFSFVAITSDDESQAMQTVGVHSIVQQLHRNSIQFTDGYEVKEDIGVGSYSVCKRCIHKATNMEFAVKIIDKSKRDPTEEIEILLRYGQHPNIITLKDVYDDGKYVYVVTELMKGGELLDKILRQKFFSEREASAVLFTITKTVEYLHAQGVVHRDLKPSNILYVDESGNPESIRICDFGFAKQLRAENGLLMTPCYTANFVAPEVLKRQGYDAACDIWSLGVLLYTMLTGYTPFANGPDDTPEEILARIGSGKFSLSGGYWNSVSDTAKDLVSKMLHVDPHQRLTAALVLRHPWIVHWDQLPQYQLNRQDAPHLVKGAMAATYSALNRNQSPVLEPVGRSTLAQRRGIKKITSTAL

SMILES	IC50 [µM]
O=C1NC(=O)C(=NNc2ccc(O)cc2)C(=O)N1 [5-(2-(4-Hydroxyphenyl)hydrazono)pyrimidine-2,4,6(1H,3H,5H)-trione (9)]	1.95
O=C1NC(=S)NC(=O)C1=NNc1ccc(N2CCOCC2)cc1 [5-(2-(4-Morpholinophenyl)hydrazono-dihydro-2-thioxopyrimidine-4,6(1H,5H)-dione (15)]	9.23
O=C1NC(=S)NC(=O)C1=NNc1ccc(O)cc1 [5-(2-(4-Hydroxyphenyl)hydrazono)-dihydro-2-thioxopyrimidine-4,6(1H,5H)-dione (14)]	2.19
O=C1NC(=O)C(=NNc2ccc(N3CCOCC3)cc2)C(=O)N1 [5-(2-(4-Morpholinophenyl)hydrazono)pyrimidine-2,4,6(1H,3H,5H)-trione (13)]	5.11
